Experimental data from patent US9572801B2, “Tetrahydronaphthyridinyl propionic acid derivatives and uses thereof” (SciFluor Life Sciences, Inc., priority 2015, dated 2017).

What was measured:
αvβ6 = αvβ6 (Homo sapiens, UniProt P06756+P18564); experiment: αv integrin binding assay, αVβ6-LAP-TGF β1 interaction (integrin coupled beads, flow cytometry); settings: ligand LAP-TGF β1 (LAP1) 10 nM; integrin 10 nM
Protocol: (§1) αVβ6/αVβ8—LAP-TGF β1 Binding Assay
(§2) Integrins αVβ6/αVβ8 coupled beads are treated with an αVβ6/αVβ8 ligand (e.g., LAP TGF-β1 (LAP1)), and the complex is incubated with a primary antibody (Ab), which can be labeled for detection (e.g., fluorescently labeled), and optionally with a secondary antibody, which can be labeled for detection (e.g., fluorescently labeled). Reaction between integrin coupled beads and the ligand was considered as the full reaction, and reaction without the ligand or a compound of the disclosure was considered as the blank reaction. The complex is analyzed, e.g., by either plate reader or Flow Cytometer, to determine modulation of binding between αVβ6/αVβ8 and the ligand (e.g., LAP-TGF Pβ1) by the compounds of the present application. […]
(§3) The integrin coupled Dyna beads were allowed to interact with respective ligands. The integrin-ligand complex was detected with either Primary/Secondary Antibody conjugated with Fluorescein Isothiocyanate (FITC). […] Fluorescence was measured by Flow Cytometry analysis.
(§4) αVβ6/αVβ8—LAP-TGF β1 interaction: αVβ6/αVβ8 coupled beads were treated with the ligand LAP TGF-β1 (LAP1) at room temperature for 3 hours. […] The complex was analyzed by either plate reader or Flow Cytometer. […]
(§5) Quantification: The samples were acquired using a BD FACSCalibur system and analyzed with BD Cell quest pro Version 6. […]

αvβ8 = αvβ8 (Homo sapiens, UniProt P06756+P26012); experiment: αv integrin binding assay, αVβ8-LAP-TGF β1 interaction (integrin coupled beads, flow cytometry)
Chain of αvβ8 (P06756 31-992 limits assumed): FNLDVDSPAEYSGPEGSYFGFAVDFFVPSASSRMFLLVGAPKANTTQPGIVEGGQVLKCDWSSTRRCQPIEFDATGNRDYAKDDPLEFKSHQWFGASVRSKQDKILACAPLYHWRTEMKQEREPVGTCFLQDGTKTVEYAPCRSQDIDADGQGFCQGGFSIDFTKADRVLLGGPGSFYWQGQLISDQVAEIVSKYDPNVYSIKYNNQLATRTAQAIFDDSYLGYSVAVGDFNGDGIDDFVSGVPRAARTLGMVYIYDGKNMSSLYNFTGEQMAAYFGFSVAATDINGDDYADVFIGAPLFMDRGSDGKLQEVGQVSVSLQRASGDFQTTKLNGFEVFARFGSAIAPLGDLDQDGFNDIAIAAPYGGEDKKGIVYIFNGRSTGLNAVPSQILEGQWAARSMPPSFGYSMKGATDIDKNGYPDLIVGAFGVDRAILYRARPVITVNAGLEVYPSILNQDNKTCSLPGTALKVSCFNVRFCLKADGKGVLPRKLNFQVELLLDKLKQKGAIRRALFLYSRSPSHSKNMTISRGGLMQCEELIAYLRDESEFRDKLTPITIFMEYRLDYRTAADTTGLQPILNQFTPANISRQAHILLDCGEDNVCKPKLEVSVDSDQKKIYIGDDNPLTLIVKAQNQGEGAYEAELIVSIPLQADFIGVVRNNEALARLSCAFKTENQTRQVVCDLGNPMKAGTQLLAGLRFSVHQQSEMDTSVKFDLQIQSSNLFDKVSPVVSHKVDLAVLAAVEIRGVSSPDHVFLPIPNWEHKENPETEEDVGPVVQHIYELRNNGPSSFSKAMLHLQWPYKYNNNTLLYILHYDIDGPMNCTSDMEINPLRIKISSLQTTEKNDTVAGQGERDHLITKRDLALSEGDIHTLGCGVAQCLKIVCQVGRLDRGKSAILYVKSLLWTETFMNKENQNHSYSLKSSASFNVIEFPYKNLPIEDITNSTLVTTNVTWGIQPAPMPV
Chain of αvβ8 (P26012 43-684 limits assumed): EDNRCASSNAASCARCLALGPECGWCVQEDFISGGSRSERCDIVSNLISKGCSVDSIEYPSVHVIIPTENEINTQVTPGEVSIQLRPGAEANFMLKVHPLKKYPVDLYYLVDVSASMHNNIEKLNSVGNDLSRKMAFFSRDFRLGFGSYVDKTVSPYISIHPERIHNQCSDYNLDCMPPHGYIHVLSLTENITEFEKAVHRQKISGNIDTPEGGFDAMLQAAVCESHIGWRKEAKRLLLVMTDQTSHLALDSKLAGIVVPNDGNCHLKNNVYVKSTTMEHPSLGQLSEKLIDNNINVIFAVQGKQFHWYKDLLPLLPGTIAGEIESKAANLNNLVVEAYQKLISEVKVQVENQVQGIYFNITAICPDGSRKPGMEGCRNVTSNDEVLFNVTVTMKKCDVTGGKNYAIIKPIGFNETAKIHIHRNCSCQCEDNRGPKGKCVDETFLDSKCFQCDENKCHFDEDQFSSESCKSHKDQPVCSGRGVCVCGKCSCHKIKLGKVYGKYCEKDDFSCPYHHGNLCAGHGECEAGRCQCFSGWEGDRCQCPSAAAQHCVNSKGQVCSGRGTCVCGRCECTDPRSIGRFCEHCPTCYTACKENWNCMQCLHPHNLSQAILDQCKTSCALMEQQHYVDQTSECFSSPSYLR
Protocol: as §1, §2, §3, §4, §5

Chain of αvβ6 (P06756 31-992 limits assumed): as the sequence (P06756 31-992 limits assumed) above
Chain of αvβ6 (P18564 22-707 limits assumed): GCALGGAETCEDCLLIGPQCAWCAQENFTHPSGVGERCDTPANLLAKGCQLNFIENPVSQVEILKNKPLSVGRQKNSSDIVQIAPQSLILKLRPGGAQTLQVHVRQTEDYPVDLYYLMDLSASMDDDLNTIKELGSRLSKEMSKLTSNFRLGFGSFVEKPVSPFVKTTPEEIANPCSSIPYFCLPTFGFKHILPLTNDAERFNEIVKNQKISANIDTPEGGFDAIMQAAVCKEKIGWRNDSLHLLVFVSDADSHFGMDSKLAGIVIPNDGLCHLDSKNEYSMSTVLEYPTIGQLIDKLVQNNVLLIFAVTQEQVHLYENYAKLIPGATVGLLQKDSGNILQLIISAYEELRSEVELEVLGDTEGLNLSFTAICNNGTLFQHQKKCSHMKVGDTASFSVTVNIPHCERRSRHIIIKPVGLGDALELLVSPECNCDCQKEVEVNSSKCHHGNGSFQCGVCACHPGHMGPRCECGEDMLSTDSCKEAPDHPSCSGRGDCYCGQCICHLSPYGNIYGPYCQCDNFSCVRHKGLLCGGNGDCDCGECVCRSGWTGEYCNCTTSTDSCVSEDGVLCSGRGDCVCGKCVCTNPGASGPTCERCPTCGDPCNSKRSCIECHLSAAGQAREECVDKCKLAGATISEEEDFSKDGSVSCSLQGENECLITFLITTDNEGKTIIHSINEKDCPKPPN

IC50 (αvβ6): 9.57 nM | IC50 (αvβ8; ligand LAP-TGF β1 (LAP1) 20 nM, integrin 10 nM): 17.6 nM | αvβ8/αvβ6 (αvβ8; ratio of αvβ8 IC50 to αvβ6 IC50): 1.83
Compound: COc1ccc([C@H](CC(=O)O)N2CCN(CCCc3ccc4c(n3)NCCC4)C2=O)cn1 [A1, (S)-3-(6-methoxypyridin-3-yl)-3-(2-oxo-3-(3-(5,6,7,8-tetrahydro-1,8-naphthyridin-2-yl)propyl)imidazolidin-1-yl)propanoic acid]
